In the test the test system is mice. Briefly: 2-phenyl-1,4-benzoquinone-induced writhing test in mice (Phenylquinone Writhing, PQW), analgesic activity. In kind it is in vivo. The source says: The compounds of Formula I of the present invention are useful as analgesic agents due to their ability to alleviate pain in mammals. […] Exptl. Biol. Med., 95, 729 (1957)].

This is an account of results in patent US4897392A, “4H-indolo(1,2-d)(1,2,4)triazolo(4,3-A)(1,4)benzodiazepines” (Hoechst-Roussel Pharmaceuticals, Inc., priority 1989, dated 1990).

With `Cc1nnc2n1-c1ccc(Cl)cc1-c1c(Cl)c3ccccc3n1C2` [10,12-Dichloro-1-methyl-4H-indolo[1,2-d][1,2,4]triazolo[4,3-a][1,4]benzodiazepine], the “Analgesic PQW, % Inhibition of Writhing at 20 mg/kg., s.c.” value came out at 32%.

Take `CCC(=O)O[C@](Cc1ccccc1)(c1ccccc1)[C@H](C)CN(C)C` [Propoxyphene, reference compound]: the “Analgesic PQW, % Inhibition of Writhing (reference compound, at 3.9 mg/kg, s.c.)” value (3.9 mg/kg) is given as 50%.

Regarding `Cc1nnc2n1-c1ccccc1-c1cc3ccccc3n1C2` [1-Methyl-4H-indolo[1,2-d][1,2,4]triazolo[4,3-a][1,4]benzodiazepine], the “Analgesic PQW, % Inhibition of Writhing at 20 mg/kg., s.c.” value was found to be 37%.

For `Cc1nnc2n1-c1ccc(Cl)cc1-c1cc3ccccc3n1C2` [12-Chloro-1-methyl-4H-indolo[1,2-d][1,2,4]triazolo[4,3-a][1,4]benzodiazepin], the “Analgesic PQW, % Inhibition of Writhing at 20 mg/kg., s.c.” value turned out to be 46%.

Turning to `Cc1nnc2n1-c1ccccc1-c1c(Cl)c3ccccc3n1C2` [10-Chloro-1-methyl-4H-indolo[1,2-d][1,2,4]triazolo[4,3-a][1,4]benzodiazepin], the “Analgesic PQW, % Inhibition of Writhing at 20 mg/kg., s.c.” value turned out to be 51%.
